Source: patent EP0366226A1, “Stabilized thiocarbonate solutions and the use thereof for controlling soil pests” (UNION OIL COMPANY OF CALIFORNIA, priority 1988, dated 1990)
Where a name gives a salt, the structure may show the parent alone.

How the values were obtained:
[1] = Accelerated ageing at 84° C.: effect of additives on thiocarbonate half-life; assay type: physicochemical; settings: parentheses = decrease
Method: The effect of elemental sulfur additions and the addition of free radical scavengers on the half-life of thiocarbonate solutions was determined by an accelerated adding procedure in which the compositions were stored at 84° C. in order to accelerate decomposition and thereby facilitate data acquisition. Incremental additions of 1.0, 3.0 and 5.0 weight percent elemental sulfur were made, and these corresponds to 0.16, 0.48 and 0.86 equivalents of sulfur per equivalent of ammonium sulfide, respectively. Since the solutions contained 1 equivalent of ammonium sulfide per equivalent of ammonium tetrathiocarbonate (based on the weight percent values for those components given above), the amount of ammonium polysulfide in the solution correspond, nominally, to 0.16, 0.48 and 0.86 equivalents polysulfide per equivalent of thiocarbonate for the 3 sulfur concentrations employed.

[2] = Solvency of aqueous thiocarbonate solutions for urea; assay type: physicochemical; settings: 46 percent solution
Method: Urea was added to a 41.5 percent, by weight, aqueous solution of calcium tetrathiocarbonate until the solubility limit of urea was reached. At room temperature, the solution dissolved 122 percent by weight urea. The resulting solution was 55 percent urea, 18.6 percent calcium tetrathiocarbonate, and 26.3 percent water, by weight. Thus, the solvency of the aqueous solution of calcium tetrathiocarbonate for urea was at least as great as that of water alone. Similarly, a 46 percent solution of potassium tetrathiocarbonate dissolved 100 percent of its own weight of urea. Similar results were obtained with other tri- and tetrathiocarbonates of alkali metal and alkaline earth metals.

Phytophthora cinnamomi = experiment: Fungicidal test, radial growth of mycelia from treated agar blocks; assay type: cell-based
Method: (§1) Thiocarbonate solutions were used in a test of their fungicidal properties. Cultures of four plant pathogenic fungi were grown upon potato dextrose agar at room temperature, in diffuse natural lighting. After one week, square blocks having 2 millimeter sides were cut from the edges of actively drawings mycelia spots on the agar.
(§2) The blocks were immersed in sterile deionized water, as a control, or in dilutions of thiocarbonate solutions using the sterile water, in a closed container. Subsequently, the blocks were removed and placed upon agar in clean plates, and mycelia were allowed to grow for one week.
(§3) Radial growth of mycelia colonies was measured for each of the six to eight replicate plates used for a particular fungus, and average colony radius was calculated. Percent control is defined by the following equation: […]
(§4) Concentrations given for solutions used to treat the agar blocks are expressed in grams of thiocarbonate solution per liter of diluted solution.

Verticillium dahliae = experiment: as above; assay type: cell-based
Method: as §1, §2, §3, §4

Fusarium oxysporum = experiment: as above; assay type: cell-based
Method: as §1, §2, §3, §4

Sclerotium rolfsii = experiment: as above; assay type: cell-based
Method: as §1, §2, §3, §4

[3] = Degradation time in sandy loam soil at different moisture (CS2 in air space by gas chromatography); assay type: physicochemical
Method: A sandy loam soil was placed in 1-liter glass bottles, fitted with stoppers having fluorocarbon liners and silicone rubber septa, to give a soil depth of about 4 cm. Water was added to the soil, in quantities to obtain 50 and 100 percent soil saturation. Thiocarbonate solution or carbon disulfide was then injected near the bottom of the soil layer, the bottles were promptly sealed, and the air space in the bottles was sampled at intervals with a syringe, for gas chromatographic analysis of CS₂. The results are summarized below, wherein degradation time is the number of hours required to achieve the maximum CS₂ concentration in the air space.

[4] = CS2 in equilibrium vapor phase over concentrated thiocarbonate solutions (gas chromatography); assay type: physicochemical; settings: for equilibrium CS₂ concentration in the vapor phase: 24° C., stoichiometric aqueous solution, 12.9 weight percent equivalent carbon disulfide
Method: Accordingly, the amount of base, sulfide and/or polysulfide employed should be sufficient to reduce the carbon disulfide partial pressure of the solution by the desired amount, and the amount of additive required to achieve that effect can be easily determined by adding different, known quantities of base, sulfide and/or polysulfide to the desired thiocarbonate solution, confining the vapor space over the solution at 24° C. for a sufficient period of time, e.g. about 24 hours, and analyzing, the vapor phase by gas chromotography for carbon disulfide. Lower additive concentrations will result in somewhat higher CS₂ equilibrium concentrations (e.g. higher CS₂ partial pressures), and higher additive concentrations will result in lower CS₂ partial pressures.
A series of solutions containing 12.9 weight percent equivalent carbon disulfide as sodium tri- or tetrathiocarbonate were prepared by combining sodium hydroxide, deionized water, sulfur (in the case of tetrathiocarbonate only), hydrogen sulfide and carbon disulfide. In the stoichiometric solutions, the reactants were combined in proportions sufficient to provide sodium tri- or tetrathiocarbonate solutions containing 12.9 weight percent equivalent carbon disulfide without any excess reactant. In addition to the stoichiometric solutions, solutions were prepared with systematically increasing sodium hydroxide concentrations at constant equivalent carbon disulfide concentrations, so that excess base was provided in those solutions in the proportions given in the following table.
The respective solutions were prepared by combining the appropriate amounts of base, water, and elemental sulfur (when used to form the tetrathiocarbonate), in 250 ml. bottles. The contents were then tared, and the appropriate amounts of hydrogen sulfide gas were bubbled in with cooling as necessary to form 100 grams of each of the test solutions. The bottles were then capped with Mininert valves, and the appropriate amount of carbon disulfide was added by injecting with a syringe. All sample bottles were shaken overnight to complete the reaction and were then allowed to equilibrate 3 days at 24° C., and the vapor phase was then sampled and analyzed for carbon disulfide by gas chromotography. The results are reported in the following table and show the effects of increasing base concentrations on carbon disulfide partial pressure (carbon disulfide content of the equilibrium vapor phase). Hydrogen sulfide was not detected in the vapor phase of these formulations at an H₂S detection limit of 100 ppmv.
The operation described in Example 19 was repeated with the exception that sodium sulfide (Na₂S) was substituted for excess base. The sodium sulfide was introduced by forming solutions containing incrementally greater amounts of sodium hydroxide and then adding additional amounts of hydrogen sulfide equivalent to the amount of excess sodium hydroxide to convert the excess sodium hydroxide to sodium sulfide in situ.

[5] = additive Concentration 0.5 Wt. %
[6] = additive Concentration 1.0 Wt. %
[7] = additive Concentration 2.0 Wt. %
[8] = 1 g/l, listed as K₂CS₄ (9.43%CS₂)
[9] = 10 g/l, listed as K₂CS₄ (9.43%CS₂)
[10] = Base 0.00 equivalent per equivalent of CS2, sodium salt, 12.9 weight percent equivalent CS2
[11] = Base 0.02 equivalent per equivalent of CS2
[12] = Base 0.04 equivalent per equivalent of CS2
[13] = Base 0.08 equivalent per equivalent of CS2
[14] = Base 0.12 equivalent per equivalent of CS2
[15] = Sulfide 0.02 equivalent per equivalent of CS2
[16] = Sulfide 0.04 equivalent per equivalent of CS2
[17] = Sulfide 0.08 equivalent per equivalent of CS2
[18] = Sulfide 0.12 equivalent per equivalent of CS2
[19] = Sulfide (Na2S) 0.00 equivalent per equivalent of CS2, sodium salt, 12.9 weight percent equivalent CS2
[20] = 10 g/l, listed as Na₂CS₄ (10.6%CS₂)
[21] = 1 g/l, listed as Na₂CS₄ (10.6%CS₂)
[22] = additive Concentration 5.0 Wt. %

O=C1O[C@H]([C@@H](O)CO)C(O)=C1O [Ascorbic Acid]
Increase (Decrease) in Half-Life, % [1, 5]: 0%
Increase (Decrease) in Half-Life, % [1, 6]: 0%
Increase (Decrease) in Half-Life, % [1, 7]: 0%

O=C(O)CC(O)(CC(=O)O)C(=O)O [Citric Acid, Na Salt]
Increase (Decrease) in Half-Life, % [1, 5]: 0%
Increase (Decrease) in Half-Life, % [1, 6]: 0%
Increase (Decrease) in Half-Life, % [1, 7]: 0%

Oc1ccc(O)cc1 [Hydroquinone]
Increase (Decrease) in Half-Life, % [1, 5]: 0%

S=C(S)SS [K₂CS₄, potassium tetrathiocarbonate]
urea dissolved by the solution [2]: 100% of its own weight
Percent Control Phytophthora cinnamomi (Phytophthora cinnamomi; [8]): 56%
Percent Control Phytophthora cinnamomi (Phytophthora cinnamomi; [9]): 68%
Percent Control Verticillium dahliae (Verticillium dahliae; [8]): 27%
Percent Control Verticillium dahliae (Verticillium dahliae; [9]): 15%
Percent Control Fusarium oxysporum (Fusarium oxysporum; [8]): 8%
Percent Control Fusarium oxysporum (Fusarium oxysporum; [9]): 10%
Percent Control Fusarium oxysporum (Fusarium oxysporum; 100 g/l thiocarbonate solution per liter of diluted solution, listed as K₂CS₄ (9.43%CS₂)): 76%
Percent Control Sclerotium rolfsii (Sclerotium rolfsii; [8]): 42%
Percent Control Sclerotium rolfsii (Sclerotium rolfsii; [9]): 8%
Degradation Time ([3]; Soil Moisture 50 % of Saturation): 5 h
Degradation Time ([3]; Soil Moisture 100 % of Saturation): 48 h

S=C(S)SS [Na₂CS₄, sodium tetrathiocarbonate]
equilibrium CS₂ concentration in the vapor phase [4]: approximately 14 volume percent
CS₂ in Equilibrium Vapor at 24° C., Vol. % [4, 10]: 14.4 Vol. %
CS₂ in Equilibrium Vapor at 24° C., Vol. % [4, 11]: 0.87 Vol. %
CS₂ in Equilibrium Vapor at 24° C., Vol. % [4, 12]: 0.47 Vol. %
CS₂ in Equilibrium Vapor at 24° C., Vol. % [4, 13]: 0.29 Vol. %
CS₂ in Equilibrium Vapor at 24° C., Vol. % [4, 14]: 0.27 Vol. %
CS₂ in Equilibrium Vapor at 24° C., Vol. % [4, 15]: 6.60 Vol. %
CS₂ in Equilibrium Vapor at 24° C., Vol. % [4, 16]: 0.74 Vol. %
CS₂ in Equilibrium Vapor at 24° C., Vol. % [4, 17]: 0.12 Vol. %
CS₂ in Equilibrium Vapor at 24° C., Vol. % [4, 18]: 0.13 Vol. %
CS₂ in Equilibrium Vapor at 24° C., Vol. % [4, 19]: 14.4 Vol. %
Percent Control Phytophthora cinnamomi (Phytophthora cinnamomi; [20]): 37%
Percent Control Verticillium dahliae (Verticillium dahliae; [21]): 23%
Percent Control Fusarium oxysporum (Fusarium oxysporum; [21]): 4%
Percent Control Fusarium oxysporum (Fusarium oxysporum; [20]): 6%
Percent Control Fusarium oxysporum (Fusarium oxysporum; 100 g/l thiocarbonate solution per liter of diluted solution, listed as Na₂CS₄ (10.6%CS₂)): 100%
Percent Control Sclerotium rolfsii (Sclerotium rolfsii; [20]): 100%

CCN(CC)CC [Triethylamine]
Increase (Decrease) in Half-Life, % [1, 6]: 0%

S=C(S)S [Trithiocarbonate, sodium trithiocarbonate]
equilibrium CS₂ concentration in the vapor phase [4]: 27 volume percent
CS₂ in Equilibrium Vapor at 24° C., Vol. % [4, 10]: 27.5 Vol. %
CS₂ in Equilibrium Vapor at 24° C., Vol. % [4, 11]: 34.2 Vol. %
CS₂ in Equilibrium Vapor at 24° C., Vol. % [4, 12]: 30.0 Vol. %
CS₂ in Equilibrium Vapor at 24° C., Vol. % [4, 13]: 0.67 Vol. %
CS₂ in Equilibrium Vapor at 24° C., Vol. % [4, 14]: 0.16 Vol. %
CS₂ in Equilibrium Vapor at 24° C., Vol. % [4, 15]: 45.9 Vol. %
CS₂ in Equilibrium Vapor at 24° C., Vol. % [4, 16]: 1.39 Vol. %
CS₂ in Equilibrium Vapor at 24° C., Vol. % [4, 17]: 0.57 Vol. %
CS₂ in Equilibrium Vapor at 24° C., Vol. % [4, 18]: 0.42 Vol. %
CS₂ in Equilibrium Vapor at 24° C., Vol. % [4, 19]: 27.5 Vol. %

NC(N)=O [Urea]
Increase (Decrease) in Half-Life, % [1, 22]: 0%

COc1ccc(O)cc1 [p-Methoxyphenol]
Increase (Decrease) in Half-Life, % [1, 5]: 0%
Increase (Decrease) in Half-Life, % [1, 6]: 0%
Increase (Decrease) in Half-Life, % [1, 7]: 0%

Elemental Sulfur
Increase (Decrease) in Half-Life, % [1, 6]: 0%
Increase (Decrease) in Half-Life, % ([1]; additive Concentration 3.0 Wt. %): 16%
Increase (Decrease) in Half-Life, % [1, 22]: 22%
